Experimental data published in paper PMC8822125, “RW-BP100-4D, a Promising Antimicrobial Candidate With Broad-Spectrum Bactericidal Activity” (Frontiers in Microbiology, 2022).
“And” between values parts separate entries of the source, which are not always exact repeats. Equal values may be shown once. Where a SMILES comes first, the peptide text is derived from it.

Tests used:
[1] = tested on: Acinetobacter baumannii 34AB; conditions: Acinetobacter baumannii 34AB (tet(X3)); mean of three repeated experiments
Description: (§1) To compare the antibacterial activity of RW-BP100 and its serial derivatives, the MIC against S. aureus ATCC29213 and E. coli ATCC25922 were determined using broth microdilution method according to the guidelines of Clinical and Laboratory Standards Institute (CLSI) M100-S25 ([CLSI, 2015]). Briefly, peptides were dissolved in sterilized water and twofold diluted in Mueller-Hinton (MH) broth (Beijing Land Bridge Technology) at the concentration ranges of 0.098–100 μg/mL. Then the peptides were mixed with an equal volume (100 μL) of bacterial suspensions of 10^6 CFU/mL in a sterilized 96-well microtiter plate. […] To further evaluate the antimicrobial spectrum of RW-BP100-4D, MICs were determined against a more variety of Gram-positive and Gram-negative bacterial species, and the fungal strains (according to CLSI M38 guideline). […] MIC and MBC testing were performed with three independent repeats.

[2] = tested on: Campylobacter jejuni ATCC33291; conditions: mean of three repeated experiments
Description: as §1

[3] = tested on: Klebsiella pneumoniae XG-Kpn03; conditions: Klebsiella pneumoniae XG-Kpn03 (blaNDM-5); mean of three repeated experiments
Description: as §1

[4] = tested on: Listeria monocytogenes ATCC19115; conditions: mean of three repeated experiments
Description: as §1

[5] = tested on: Pseudomonas aeruginosa 42; conditions: mean of three repeated experiments
Description: as §1

[6] = tested on: Salmonella enterica ATCC13076; conditions: mean of three repeated experiments
Description: as §1

[7] = tested on: Shewanella putrefaction ATCC49138; conditions: mean of three repeated experiments
Description: as §1

Escherichia coli O157:H7 = experiment: MIC/MBC, broth microdilution; type: cell-based; conditions: mean of three repeated experiments
sheep red blood cells = sheep red blood cells in PBS, 37°C, 1 h, OD576, relative to melittin, mean ± SD, three repeats;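 further: hemolysis expressed in % from supernatant absorbance, with PBS-treated cells as 0% baseline and melittin as 100%, peptide mixed 1:1 with an 8% v/v erythrocyte suspension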
MAC-T cells = conditions: peptide 150 μg/mL, 24 h, WST-1, mean ± SD, three repeats
[8] = tested on: Staphylococcus aureus ATCC33591; conditions: Staphylococcus aureus ATCC33591 (mecA); mean of three repeated experiments
E. coli ATCC25922 = conditions: 1 h, mean of three
S. aureus ATCC29213 = conditions: 1 h, mean of three
papain = papain (Carica papaya, UniProt P00784); conditions: 100 μg/mL peptide, papain 1 mg/mL, 37°C, 1 h; decrease of HPLC peak area (C8, UV 220 nm)
[9] = 100 μg/mL peptide in PBS, pH 7, 40-80 ℃, then broth microdilution
[10] = 100 μg/mL peptide in PBS, pH 7, 90 ℃
[11] = 100 μg/mL peptide in PBS, pH 7, 100 ℃
[12] = 100 μg/mL peptide with papain 1 mg/mL, 37°C, protease inactivated 80°C 30 min
[13] = 100 μg/mL peptide with sterile calf serum, 37°C, serum inactivated 80°C 30 min
[14] = 100 μg/mL peptide with trypsin 1 mg/mL, 37°C, protease inactivated 80°C 30 min
[15] = 100 μg/mL peptide, pH 2-7, 37°C, then adjusted to pH 7.0
[16] = 100 μg/mL peptide, pH 8-9, 37°C, then adjusted to pH 7.0

papain, sequence (P00784 134-345): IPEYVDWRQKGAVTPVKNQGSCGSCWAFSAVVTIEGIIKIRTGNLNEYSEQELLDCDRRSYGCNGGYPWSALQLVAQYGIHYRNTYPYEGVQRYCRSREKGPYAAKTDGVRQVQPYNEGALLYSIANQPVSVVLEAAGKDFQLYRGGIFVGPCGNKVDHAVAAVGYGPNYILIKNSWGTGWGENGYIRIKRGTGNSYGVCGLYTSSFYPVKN

Compound: CC[C@H](C)[C@H](NC(=O)[C@H](CCCNC(=N)N)NC(=O)[C@H](CCCNC(=N)N)NC(=O)[C@@H](Cc1ccccc1)NC(=O)[C@H](CC(C)C)NC(=O)[C@H](CCCNC(=N)N)NC(=O)[C@@H](N)CCCNC(=N)N)C(=O)N[C@@H](CC(C)C)C(=O)N[C@@H](CCCNC(=N)N)C(=O)N[C@@H](Cc1c[nH]c2ccccc12)C(=O)N[C@@H](CC(C)C)C(N)=O [RW-BP100-4D] (HELM PEPTIDE1{R.R.L.[dF].R.R.I.L.R.W.L.[am]}$$$$V2.0)
- MBC of peptides [1]: 12 µg/mL
- MIC of peptides [1]: 6 µg/mL
- MBC of peptides [2]: 12 µg/mL
- MIC of peptides [2]: 6 µg/mL
- MBC of peptides [3]: 50 µg/mL
- MIC of peptides [3]: 25 µg/mL
- MBC of peptides [4]: 6 µg/mL
- MIC of peptides [4]: 3 µg/mL
- MBC of peptides [5]: 50 µg/mL
- MIC of peptides [5]: 12 µg/mL
- MBC of peptides [6]: 6 µg/mL
- MIC of peptides [6]: 3 µg/mL
- MBC of peptides [7]: 12 µg/mL
- MIC of peptides [7]: 6 µg/mL
- MBC of peptides (Escherichia coli O157:H7): 6 µg/mL
- MIC of peptides (Escherichia coli O157:H7): 3 µg/mL
- Hemolytic rate, 50 μg/mL (sheep red blood cells; 50 μg/mL peptide): 0.11 ± 0.19%
- Hemolytic rate, 100 μg/mL (sheep red blood cells; 100 μg/mL peptide): 3.69 ± 0.01%
- Hemolytic rate, 150 μg/mL (sheep red blood cells; 150 μg/mL peptide): 18.75 ± 0.42%
- Hemolytic rate, 300 μg/mL (sheep red blood cells; 300 μg/mL peptide): 48.55 ± 2.53%
- Cell survival rate, MAC-T (MAC-T cells): 92.68 ± 3.65%
- MBC of peptides [8]: 6 µg/mL
- MIC of peptides [8]: 6 µg/mL and 3 µg/mL
- MIC of RW-BP100-4D against E. coli ATCC25922 after 40-80 ℃ (E. coli ATCC25922; [9]): 6 µg/mL
- MIC of RW-BP100-4D against E. coli ATCC25922 after 90 ℃ (E. coli ATCC25922; [10]): 12 µg/mL
- MIC of RW-BP100-4D against E. coli ATCC25922 after 100 ℃ (E. coli ATCC25922; [11]): 25 µg/mL
- MIC of RW-BP100-4D against E. coli ATCC25922 after papain (E. coli ATCC25922; [12]): >50 µg/mL
- MIC of RW-BP100-4D against E. coli ATCC25922 after calf serum (E. coli ATCC25922; [13]): >50 µg/mL
- MIC of RW-BP100-4D against E. coli ATCC25922 after trypsin (E. coli ATCC25922; [14]): >50 µg/mL
- MIC of RW-BP100-4D against E. coli ATCC25922 after pH 2-7 (E. coli ATCC25922; [15]): 6 µg/mL
- MIC of RW-BP100-4D against E. coli ATCC25922 after pH 8-9 (E. coli ATCC25922; [16]): 12 µg/mL
- MIC of RW-BP100-4D against S. aureus ATCC29213 after 40-80 ℃ (S. aureus ATCC29213; [9]): 3 µg/mL
- MIC of RW-BP100-4D against S. aureus ATCC29213 after 90 ℃ (S. aureus ATCC29213; [10]): 6 µg/mL
- MIC of RW-BP100-4D against S. aureus ATCC29213 after 100 ℃ (S. aureus ATCC29213; [11]): 25 µg/mL
- MIC of RW-BP100-4D against S. aureus ATCC29213 after papain (S. aureus ATCC29213; [12]): >50 µg/mL
- MIC of RW-BP100-4D against S. aureus ATCC29213 after calf serum (S. aureus ATCC29213; [13]): >50 µg/mL
- MIC of RW-BP100-4D against S. aureus ATCC29213 after trypsin (S. aureus ATCC29213; [14]): >50 µg/mL
- MIC of RW-BP100-4D against S. aureus ATCC29213 after pH 2-7 (S. aureus ATCC29213; [15]): 3 µg/mL
- MIC of RW-BP100-4D against S. aureus ATCC29213 after pH 8-9 (S. aureus ATCC29213; [16]): 12 µg/mL
- Degradation, papain (papain): >90%
